PubChem BioAssay (NCI)
Values joined by “and” are separate entries in the source; they are usually repeats but may differ in a detail not shown here. Equal entries are not always repeated.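 Results reflect a 48-hour exposure of cells in 96-well plates to compound at five concentrations. GI50 marks 50% less growth. TGI: total growth inhibition.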

Key:
Assay in all cases: inhibition of tumour cell growth, NCI panel, 48 h
CCRF-CEM leukemia = system: CCRF-CEM leukemia
DU-145 prostate = system: DU-145 prostate
HS 578T breast = system: HS 578T breast
LOX IMVI melanoma = system: LOX IMVI melanoma
NCI-H522 lung = system: NCI-H522 lung
OVCAR-5 ovarian = system: OVCAR-5 ovarian
SK-OV-3 ovarian = system: SK-OV-3 ovarian
SNB-19 CNS = system: SNB-19 CNS
T-47D breast = system: T-47D breast
SR leukemia = system: SR leukemia

SMILES | TGI (CCRF-CEM leukemia) [µM] | TGI (DU-145 prostate) [µM] | TGI (HS 578T breast) [µM] | TGI (LOX IMVI melanoma) | TGI (NCI-H522 lung) | TGI (OVCAR-5 ovarian) | TGI (SK-OV-3 ovarian) [µM] | TGI (SNB-19 CNS) | TGI (T-47D breast) [µM] | TGI (SR leukemia) [µM] | GI50 (CCRF-CEM leukemia) [µM] | GI50 (LOX IMVI melanoma) [µM] | GI50 (NCI-H522 lung) | GI50 (OVCAR-5 ovarian) [µM] | GI50 (SK-OV-3 ovarian) [µM] | GI50 (SNB-19 CNS) [µM] | GI50 (DU-145 prostate) [µM] | GI50 (HS 578T breast) [µM]
O=C(NCCCCCCO)c1cccc2cc3ccccc3nc12 | > 100 | 32 | 71.9 | 34.7 µM | 28.8 µM | 38.9 µM | 47.4 | 32.1 µM | 26 | – | – | – | – | – | – | – | – | –
CC(C)(Cc1ccccc1)N1C(=O)N1C(C)(C)Cc1ccccc1 | 61.3 | > 100 | > 100 | 33.6 µM | 60.6 µM | 83.1 µM | > 100 | > 100 µM | > 100 | > 100 | – | – | – | – | – | – | – | –
COC(=O)[C@@H]1C=C[C@H](NC(C)=O)C1 | > 100 | > 100 | > 100 | > 100 µM | – | > 100 µM | > 100 | > 100 µM | > 100 | > 100 | – | – | – | – | – | – | – | –
CC(=O)NC(=O)NC1=NCCC(=O)N1CCc1c[nH]c2ccccc12 | > 100 | > 100 | > 100 | > 100 µM | > 100 µM | > 100 µM | > 100 | > 100 µM | > 100 | – | – | – | – | – | – | – | – | –
C=CCc1ccccc1C1CC2(C(=O)OC)OC1C(C(=O)OC)=C2C(=O)OC (stereo unspecified) | > 10 | > 10 | > 10 | > 10 µM | – | > 10 µM | > 10 | > 10 µM | > 10 | > 10 | – | – | – | – | – | – | – | –
NNC(=O)Cn1ccnn1 | > 100 | > 100 | – | > 100 µM | > 100 µM | > 100 µM | – | > 100 µM | – | > 100 | – | – | – | – | – | – | – | –
O=c1c2cc(Br)ccc2ncn1COCc1ccccc1 | > 100 | > 100 | – | > 100 µM | – | > 100 µM | > 100 | > 100 µM | – | > 100 | – | – | – | – | – | – | – | –
CC(=O)O[C@H]1CCC2[C@@H]3CCC4NC(=O)C(C#N)C[C@]4(C)C3CC[C@@]21C (stereo partly specified) | > 10 | > 10 | > 10 | > 10 µM | – | > 10 µM | > 10 | > 10 µM | > 10 | > 10 | – | – | – | – | – | – | – | –
N#C/C(=C1/c2cc([N+](=O)[O-])ccc2-c2c1cc([N+](=O)[O-])cc2[N+](=O)[O-])N1CCCCC1 | > 100 | > 100 | > 100 | – | > 100 µM | > 100 µM | > 100 | > 100 µM | > 100 | 4.44 | – | – | – | – | – | – | – | –
O=NN1CCCS1(=O)=O | > 100 | > 100 | > 100 | > 100 µM | – | > 100 µM | > 100 | > 100 µM | > 100 | > 100 | – | – | – | – | – | – | – | –
CCC1(OC(=O)CN)C(=O)OCc2c1cc1n(c2=O)Cc2cc3cc4c(cc3nc2-1)OCO4 (stereo unspecified) | – | – | – | 0.155 µM and 0.106 µM | 1.43 µM and 0.243 µM | 0.114 µM and 0.219 µM | 0.174 | 27.3 µM and 3.14 µM | – | – | < 0.01 | < 0.01 | 0.0531 µM and < 0.01 µM | < 0.01 | < 0.01 | < 0.01 | – | –
COc1cccc(NC(=O)CC(=O)N2N=C(C)C(N=Nc3ccc(C(=O)O)cc3)C2=O)c1 (stereo unspecified) | > 100 | > 100 | > 100 | > 100 µM | > 100 µM | > 100 µM | – | > 100 µM | > 100 | > 100 | – | – | – | – | – | – | – | –
COc1ccc(C2SCC(=O)N2NC(=O)C(C)Oc2ccc(Cl)cc2Cl)cc1 (stereo unspecified) | – | > 100 | > 100 | > 100 µM | > 100 µM | > 100 µM | > 100 | > 100 µM | > 100 | 17.3 | – | – | – | – | – | – | – | –
C=CC(OC(C)=O)c1ccc(OC(C)=O)cc1 (stereo unspecified) | – | 27.1 | 16.6 | 9 µM | 3.57 µM | 28.1 µM | 32.6 | 28.7 µM | 8.24 | 18.5 | – | – | – | – | – | – | – | –
NC1c2c(Cl)sc(Cl)c2C(=O)C1O (stereo unspecified) | 37.7 | > 100 | > 100 | 47.3 µM | 41.6 µM | > 100 µM | > 100 | > 100 µM | > 100 | – | – | – | – | – | – | – | – | –
CC1(C)C=[N+]([O-])C(C)(C)N1O | > 10 | > 10 | – | – | > 10 µM | > 10 µM | – | > 10 µM | > 10 | > 10 | – | – | – | – | – | – | – | –
Cc1c(C#N)c(=N)oc2ccccc12 | – | > 100 | > 100 | > 100 µM | – | > 100 µM | > 100 | > 100 µM | > 100 | – | – | – | – | – | – | – | – | –
C[PH+](c1nc2ccccc2nc1[PH+](C)C(C)(C)C)C(C)(C)C.C[PH+](c1nc2ccccc2nc1[PH+](C)C(C)(C)C)C(C)(C)C.[Au+].[Cl-] (stereo unspecified) | 1.5 | 0.374 | 1.75 | 0.155 µM | – | 0.457 µM | 0.117 | 1.7 µM | – | – | 0.0603 | 0.0396 | – | 0.0441 | 0.0293 | 0.0453 | 0.0401 | 0.0447
CC1CN=C(c2ccc(CN3CCC(C4CCN(Cc5ccc(C6=NCC(C)N6)cc5)CC4)CC3)cc2)N1 (stereo unspecified) | 38.2 | 30.6 | 41.8 | 56 µM | 33.7 µM | 65.1 µM | 53.9 | 75.8 µM | 49.4 | – | – | – | – | – | – | – | – | –
COC(=O)c1cc(C)ccc1C1CN=NC12Cc1c(C)cc(C)cc1C2=O (stereo unspecified) | 86.5 | > 100 | 55.8 | 30.3 µM | 34.5 µM | > 100 µM | 69 | > 100 µM | > 100 | – | – | – | – | – | – | – | – | –
CCOC(=O)c1c(N)sc2c1C(C(=O)OCC)CCC2 (stereo unspecified) | > 100 | – | > 100 | – | – | > 100 µM | – | > 100 µM | > 100 | > 100 | – | – | – | – | – | – | – | –
C=CCCCCn1c2ccccc2c2c(C)c3cnccc3c(C)c21 | 14.3 | – | – | 82.5 µM | 18 µM | 40.4 µM | 35.9 | 37.9 µM | – | – | – | – | – | – | – | – | – | –
C[C@]12CC[C@H]3[C@@H](CCC4=C(Br)C(=O)C=C[C@@]43O)[C@@H]1CCC2=O | 31.7 | 68.7 | > 100 | > 100 µM | 38.1 µM | > 100 µM | > 100 | > 100 µM | – | 58.8 | – | – | – | – | – | – | – | –
